Test results from ChEMBL document CHEMBL1629553, “Antimalarial activity of a new stilbene glycoside from Parthenocissus tricuspidata in mice” (Antimicrob Agents Chemother, 2008).
The source made the active and inactive calls. The calls are words filed in the database; no cut-off is given here.

What was measured:
[1] = tested on: Plasmodium berghei; experiment: Antimalarial activity against chloroquine-sensitive Plasmodium berghei ATCC 50175 infected ICR mouse assessed as survival of mouse at 10 mg/kg/day, po for 4 days measured after 27 days; type: functional, organism-based
[2] = tested on: Plasmodium berghei; experiment: Antimalarial activity against chloroquine-sensitive Plasmodium berghei ATCC 50175 infected in ICR mouse assessed as chemosuppression of parasitemia at 5 mg/kg/day, po administered 24 hrs post-treatment measured after 4 days; type: functional
[3] = tested on: Plasmodium berghei; experiment: Antimalarial activity against chloroquine-sensitive Plasmodium berghei ATCC 50175 infected in ICR mouse assessed as parasitemia at 5 mg/kg/day, po administered 24 hrs post-treatment measured after 4 days (reference value: 56.3+/-0.16 %); type: functional
[4] = tested on: Plasmodium berghei; experiment: Antimalarial activity against chloroquine-sensitive Plasmodium berghei ATCC 50175 infected ICR mouse assessed as survival of mouse at 5 mg/kg/day, po for 4 days measured after 25 days; type: functional, organism-based
[5] = tested on: Plasmodium berghei; experiment: Antimalarial activity against chloroquine-sensitive Plasmodium berghei ATCC 50175 infected ICR mouse assessed as survival of mouse at 5 mg/kg/day, po for 4 days measured after 30 days; type: functional, organism-based
[6] = tested on: Plasmodium berghei; experiment: Antimalarial activity against chloroquine-sensitive Plasmodium berghei ATCC 50175 infected ICR mouse assessed as survival of mouse at 25 mg/kg/day, po for 4 days measured after 30 days; type: functional, organism-based
[7] = tested on: Plasmodium berghei; experiment: Antimalarial activity against chloroquine-sensitive Plasmodium berghei ATCC 50175 infected in ICR mouse assessed as parasitemia at 1.2 mg/kg/day, po pretreated for 4 days before infection and measured after 72 hrs (reference value: 4.6+/-0.21 %); type: functional
[8] = tested on: Plasmodium berghei; experiment: Antimalarial activity against chloroquine-sensitive Plasmodium berghei ATCC 50175 infected in ICR mouse assessed as chemosuppression of parasitemia at 1.2 mg/kg/day, po pretreated for 4 days before infection and measured after 72 hrs; type: functional
[9] = tested on: Plasmodium berghei; experiment: Antimalarial activity against chloroquine-sensitive Plasmodium berghei ATCC 50175 infected in ICR mouse assessed as parasitemia at 10 mg/kg/day, po administered 24 hrs post-treatment measured after 4 days (reference value: 56.3+/-0.16 %); type: functional
[10] = tested on: Plasmodium berghei; experiment: Antimalarial activity against chloroquine-sensitive Plasmodium berghei ATCC 50175 infected in ICR mouse assessed as parasitemia at 10 mg/kg/day, po pretreated for 4 days before infection and measured after 72 hrs (reference value: 4.6+/-0.21 %); type: functional
[11] = tested on: Plasmodium berghei; experiment: Antimalarial activity against chloroquine-sensitive Plasmodium berghei ATCC 50175 infected in ICR mouse assessed as chemosuppression of parasitemia at 10 mg/kg/day, po pretreated for 4 days before infection and measured after 72 hrs; type: functional
[12] = tested on: Plasmodium berghei; experiment: Antimalarial activity against chloroquine-sensitive Plasmodium berghei ATCC 50175 infected in ICR mouse assessed as chemosuppression of parasitemia at 25 mg/kg/day, po pretreated for 4 days before infection and measured after 72 hrs; type: functional
[13] = tested on: Plasmodium berghei; experiment: Antimalarial activity against chloroquine-sensitive Plasmodium berghei ATCC 50175 infected in ICR mouse assessed as reduced parasitemia at 10 mg/kg/day, po administered 24 hrs post-treatment for 4 day measured on day 7; type: functional; parameters: scale not given: the % may be the effect or the level left
[14] = tested on: Plasmodium berghei; experiment: Antimalarial activity against chloroquine-sensitive Plasmodium berghei ATCC 50175 infected in ICR mouse assessed as chemosuppression of parasitemia at 25 mg/kg/day, po administered 24 hrs post-treatment measured after 4 days; type: functional
[15] = tested on: Plasmodium berghei; experiment: Antimalarial activity against chloroquine-sensitive Plasmodium berghei ATCC 50175 infected in ICR mouse assessed as reduced parasitemia at 25 mg/kg/day, po administered 24 hrs post-treatment for 4 day measured on day 7; type: functional; parameters: scale not given: the % may be the effect or the level left
[16] = tested on: Plasmodium berghei; experiment: Antimalarial activity against chloroquine-sensitive Plasmodium berghei ATCC 50175 infected in ICR mouse assessed as parasitemia at 25 mg/kg/day, po administered 24 hrs post-treatment measured after 4 days (reference value: 56.3+/-0.16 %); type: functional
[17] = tested on: Plasmodium berghei; experiment: Antimalarial activity against chloroquine-sensitive Plasmodium berghei ATCC 50175 infected in ICR mouse assessed as parasitemia at 25 mg/kg/day, po pretreated for 4 days before infection and measured after 72 hrs (reference value: 4.6+/-0.21 %); type: functional
[18] = tested on: Plasmodium berghei; experiment: Antimalarial activity against chloroquine-sensitive Plasmodium berghei ATCC 50175 infected ICR mouse assessed as increase in mouse survival at 5 to 25 mg/kg/day, po administered 24 hrs post-treatment; type: functional
[19] = tested on: Mus musculus; experiment: Toxicity against chloroquine-sensitive Plasmodium berghei ATCC 50175 infected ICR mouse at 5 to 25 mg/kg, po; type: organism-based; parameters: dose 5-25 mg/kg, route oral; settings: in vivo
[20] = tested on: Plasmodium berghei; experiment: Antimalarial activity against chloroquine-sensitive Plasmodium berghei ATCC 50175 infected in ICR mouse assessed as chemosuppression of parasitemia at 5 mg/kg/day, po pretreated for 4 days before infection and measured after 72 hrs; type: functional
[21] = tested on: Plasmodium berghei; experiment: Antimalarial activity against chloroquine-sensitive Plasmodium berghei ATCC 50175 infected in ICR mouse assessed as reduced parasitemia at 5 mg/kg/day, po administered 24 hrs post-treatment for 4 day measured on day 7; type: functional; parameters: scale not given: the % may be the effect or the level left
[22] = tested on: Plasmodium berghei; experiment: Antimalarial activity against chloroquine-sensitive Plasmodium berghei ATCC 50175 infected in ICR mouse assessed as reduced parasitemia at 25 mg/kg/day, po administered 24 hrs post-treatment measured on day 3; type: functional; parameters: scale not given: the % may be the effect or the level left
[23] = tested on: Plasmodium berghei; experiment: Antimalarial activity against chloroquine-sensitive Plasmodium berghei ATCC 50175 infected in ICR mouse assessed as reduced parasitemia at 5 mg/kg/day, po administered 24 hrs post-treatment measured on day 3; type: functional; parameters: scale not given: the % may be the effect or the level left
[24] = tested on: Plasmodium berghei; experiment: Antimalarial activity against chloroquine-sensitive Plasmodium berghei ATCC 50175 infected in ICR mouse assessed as parasitemia at 5 mg/kg/day, po pretreated for 4 days before infection and measured after 72 hrs (reference value: 4.6+/-0.21 %); type: functional
[25] = tested on: Plasmodium berghei; experiment: Antimalarial activity against chloroquine-sensitive Plasmodium berghei ATCC 50175 infected in ICR mouse assessed as chemosuppression of parasitemia at 10 mg/kg/day, po administered 24 hrs post-treatment measured after 4 days; type: functional
[26] = tested on: Plasmodium berghei; experiment: Antimalarial activity against chloroquine-sensitive Plasmodium berghei ATCC 50175 infected in ICR mouse assessed as reduced parasitemia at 10 mg/kg/day, po administered 24 hrs post-treatment measured on day 3; type: functional; parameters: scale not given: the % may be the effect or the level left

## CCN(CC)CCCC(C)Nc1ccnc2cc(Cl)ccc12 (stereo not drawn) [CHLOROQUINE]
[1]
  Activity: Active
[2]
  Activity: 89.3%
[3]
  Activity: 6.2%
[4]
  Activity: Active
[5]
  Activity: Active
[6]
  Activity: Active

## CCc1nc(N)nc(N)c1-c1ccc(Cl)cc1 [PYRIMETHAMINE]
[7]
  Activity: 4.6%
[8]
  Activity: 91.8%

## OC[C@H]1O[C@@H](OC[C@@H]2O[C@H](Oc3cc(O)cc(/C=C/c4ccc(O)cc4)c3)[C@@H](O)[C@H](O)[C@H]2O)[C@H](O)[C@@H](O)[C@@H]1O
[9]
  Activity: 22.4%
[10]
  Activity: 16.5%
[11]
  Activity: 70.6%
[12]
  Activity: 80.1%
[2]
  Activity: 44.3%
[13]
  Activity: 86.3%
[14]
  Activity: 73.2%
[15]
  Activity: 89.4%
[16]
  Activity: 15.2%
[17]
  Activity: 11.3%
[18]
  Time: 96 h
[19]
  Activity: Non-toxic
[3]
  Activity: 31.3%
[20]
  Activity: 58.7%
[21]
  Activity: 73.6%
[22]
  Activity: 34.37%
[23]
  Activity: 6.25%
[24]
  Activity: 23.2%
[25]
  Activity: 60.2%
[26]
  Activity: 18.75%
